In patent US20200281937A1, “USL-311 FOR USE IN THE TREATMENT OF CANCER” (Proximagen, LLC, priority 2017, published 2020):

Legend:
Format in all cases: in vivo
Renca (kidney cancer) = assay: Syngeneic subcutaneous tumour growth inhibition, Renca; conditions: Renca s.c. tumour in mice, 50 mg/kg p.o. 5 days out of 7, vs vehicle group
Protocol: (§1) Nine syngeneic cell lines from […] different cancer types (EMT-6 (breast cancer), MBT2 (bladder cancer), CT26 (colorectal cancer), B16F10small, B16BL6 (both melanoma), A20 (lymphoma), LL/2 (lung cancer), Renca (kidney cancer), H22 (liver cancer)) were cultured and when in exponential growth were inoculated in mice subcutaneously with tumour cells in 0.1 mL of PBS for tumour development. After the mean tumour size reached approximately 80-120 mm^3 the mice were treated with 6-{4-[1-(Propan-2-yl)piperidin-4-yl]-1,4-diazepan-1-yl}-N-(pyridin-4-yl)pyridine-2-carboxamide (50 mg/kg p.o. 5 days out of 7). Tumour volumes were measured twice weekly at least in two dimensions using a caliper, and the volume expressed in mm^3 using the formula: V=0.5 a×b^2 where a and b are the long and short diameters of the tumour, respectively. Tumour growth was measured and inhibition of tumour growth reported in comparison to a vehicle treated group. All groups contained 8 mice. If the tumours in a group reached an average volume of 2000 mm^3, the experiment was terminated.

EMT-6 (breast cancer) = assay: Syngeneic subcutaneous tumour growth inhibition, EMT-6; conditions: EMT6 s.c. tumour in mice, 50 mg/kg p.o. 5 days out of 7, vs vehicle group
Protocol: as §1

B16BL6 (melanoma) = assay: Syngeneic subcutaneous tumour growth inhibition, B16BL6; conditions: B16BL6 s.c. tumour in mice, 50 mg/kg p.o. 5 days out of 7, vs vehicle group
Protocol: as §1

A20 (lymphoma) = assay: Syngeneic subcutaneous tumour growth inhibition, A20; conditions: A20 s.c. tumour in mice, 50 mg/kg p.o. 5 days out of 7, vs vehicle group
Protocol: as §1

LL/2 (lung cancer) = assay: Syngeneic subcutaneous tumour growth inhibition, LL/2; conditions: LL/2 s.c. tumour in mice, 50 mg/kg p.o. 5 days out of 7, vs vehicle group
Protocol: as §1

CT26 (colorectal cancer) = assay: Syngeneic subcutaneous tumour growth inhibition, CT26; conditions: CT26 s.c. tumour in mice, 50 mg/kg p.o. 5 days out of 7, vs vehicle group
Protocol: as §1

H22 (liver cancer) = assay: Syngeneic subcutaneous tumour growth inhibition, H22; conditions: H22 s.c. tumour in mice, 50 mg/kg p.o. 5 days out of 7, vs vehicle group
Protocol: as §1

B16F10small (melanoma) = assay: Syngeneic subcutaneous tumour growth inhibition, B16F10small; conditions: B16F10small s.c. tumour in mice, 50 mg/kg p.o. 5 days out of 7, vs vehicle group
Protocol: as §1

MBT2 (bladder cancer) = assay: Syngeneic subcutaneous tumour growth inhibition, MBT2; conditions: MBT2 s.c. tumour in mice, 50 mg/kg p.o. 5 days out of 7, vs vehicle group
Protocol: as §1

## CC(C)N1CCC(N2CCCN(c3cccc(C(=O)Nc4ccncc4)n3)CC2)CC1 [6-{4-[1-(Propan-2-yl)piperidin-4-yl]-1,4-diazepan-1-yl}-N-(pyridin-4-yl)pyridine-2-carboxamide]
Renca (kidney cancer)
  % inhibition of tumour growth relative to control: 0%
EMT-6 (breast cancer)
  % inhibition of tumour growth relative to control: 79.8%
B16BL6 (melanoma)
  % inhibition of tumour growth relative to control: 0%
A20 (lymphoma)
  % inhibition of tumour growth relative to control: 11.6%
LL/2 (lung cancer)
  % inhibition of tumour growth relative to control: 7.8%
CT26 (colorectal cancer)
  % inhibition of tumour growth relative to control: 32.1%
H22 (liver cancer)
  % inhibition of tumour growth relative to control: 20.1%
B16F10small (melanoma)
  % inhibition of tumour growth relative to control: 0%
MBT2 (bladder cancer)
  % inhibition of tumour growth relative to control: 29.3%
